pIC50: −log10 of the molar value. Values after ≈ are worked out from the molar mass of the structure shown. Like-named read-outs stand apart in the source and are kept apart here.
Tests used:
[1] = system: wild type bacterial ribosomes; test: in-vitro translation assay, bacterial ribosomes; assay type: biochemical
Source text: (§1) The antiribosomal activity of these compounds was investigated with cell-free translation assays using both wild type bacterial ribosomes and hybrid ribosomes carrying eukaryotic decoding A sites enabling the prediction of selectivity.

[2] = system: rabbit reticulocyte ribosomes; test: in-vitro translation assay, rabbit reticulocyte ribosomes; assay type: biochemical; settings: mammalian cytosolic ribosomes (rabbit)
[3] = system: E coli carrying specific resistance determinants; test: MIC by broth microdilution, E coli carrying specific resistance determinants; assay type: cell-based; settings: for MIC AG003 E. coli AAC(3)-II: clinical isolate AG003, AAC(3)-II
P aeruginosa = test: MIC by broth microdilution, P aeruginosa isolates; assay type: cell-based, Pseudomonas aeruginosa; settings: for MIC AG031 P. aer. APH(3′)-II: clinical isolate AG031, APH(3′)-II; for MIC AG032 P. aer. APH(3′)-II: clinical isolate AG032, APH(3′)-II
E coli wild type = test: MIC by broth microdilution, wild type E coli; assay type: cell-based; settings: for MIC AG001 E. coli WT: clinical isolate AG001, WT; for MIC AG055 E. coli WT: clinical isolate AG055, WT
[4] = system: mitochondrial ribosome (human chimeric); assay type: biochemical
Source text: as §1

[5] = system: cytosolic ribosome (human chimeric); assay type: biochemical
Source text: as §1

MRSA = test: MIC by broth microdilution, MRSA isolates; assay type: cell-based; settings: for MIC AG038 MRSA: clinical isolate AG038; for MIC AG039 MRSA AAC(6′)-I ANT(4′)-I: clinical isolate AG039, AAC(6′)-I ANT(4′)-I; for MIC AG042 MRSA AAC(6′)-I ANT(4′)-I APH(2′): clinical isolate AG042, AAC(6′)-I ANT(4′)-I APH(2′); for MIC AG044 MRSA: clinical isolate AG044
[6] = system: A1555G mutant mitochondrial ribosome (human chimeric); test: in-vitro translation assay, human chimeric ribosomes, A1555G mutant mitochondrial decoding site; assay type: biochemical; settings: human mitochondrial decoding site with A1555G point mutation; read-out: IC50 Mitoch. A1555G
Source text: as §1

[7] = system: Enterobacter cloacae AG290; test: MIC by broth microdilution, Enterobacter cloacae; assay type: cell-based; settings: strain AG290 Enterobacter cloacae
M. smegmatis SZ380 = test: MIC by broth microdilution, M. smegmatis; settings: strain SZ380 Mycobacterium smegmatis
[8] = system: Acinetobacter baumannii pittii AG225; test: MIC by broth microdilution, Acinetobacter baumannii; assay type: cell-based; settings: strain AG225 Acinetobacter baumannii pittii
[9] = system: Klebsiella pneumonia AG215; test: MIC by broth microdilution, Klebsiella pneumonia; assay type: cell-based; settings: strain AG215 Klebsiella pneumonia
[10] = Mycobacterium smegmatis ribosomes, read-out: IC50 Bacterial
[11] = ribosomes with a human mitochondrial decoding site, read-out: IC50 Mitoch.
[12] = ribosomes with a human cytosolic decoding site, read-out: IC50 Cytosolic

For `NC[C@H]1O[C@H](O[C@H]2[C@H](O[C@@H]3O[C@H](CO)[C@@H](O)[C@H]3O)[C@@H](O)[C@H](N)C[C@@H]2N)[C@H](N)C[C@@H]1O` [DC047], the pIC50 [1, 10] was 7.00, the pIC50 [2] was 3.80 and the “MIC AG003 E. coli AAC(3)-II” value [3] was 8 µg/mL (≈ 18.2 µM). The “MIC AG031 P. aer. APH(3′)-II” value (P aeruginosa) was 4 µg/mL (≈ 9.12 µM), the “MIC AG032 P. aer. APH(3′)-II” value (P aeruginosa) was 4 µg/mL (≈ 9.12 µM) and the “MIC AG001 E. coli WT” value (E coli wild type) was 8 to 16 µg/mL. For the same compound, the “MIC AG055 E. coli WT” value (E coli wild type) was 8 to 16 µg/mL, the pIC50 [4, 11] was 3.49 and the pIC50 [5, 12] was 3.53. For the same compound, the “MIC AG038 MRSA” value (MRSA) was 8 µg/mL (≈ 18.2 µM), the “MIC AG039 MRSA AAC(6′)-I ANT(4′)-I” value (MRSA) was over 128 µg/mL and the “MIC AG042 MRSA AAC(6′)-I ANT(4′)-I APH(2′)” value (MRSA) was over 128 µg/mL. The “MIC AG044 MRSA” value (MRSA) was 8 to 16 µg/mL and the pIC50 [6] was 3.92.

In the case of `NC[C@@H]1O[C@H](O[C@H]2[C@@H](O)[C@H](O[C@@H]3[C@@H](O)[C@H](N)C[C@H](N)[C@H]3O[C@H]3O[C@H](CO)[C@@H](O)C[C@H]3N)O[C@@H]2CO)[C@H](N)[C@@H](O)[C@@H]1O` [Lividomycin B, lividomycin B, reference compound], the “MIC AG290 E. cloacae” value [7] was 2 µg/mL (≈ 3.34 µM), the pIC50 [1, 10] was 7.40 and the pIC50 ([1]; bacterial ribosome, Table 3 (Example 1), read-out: IC50 Bac) was 7.40. The pIC50 [2] was 4.60, the “MIC E coli AG007 ANT(3″) AAC(3)-I” value ([3]; AG007 ANT(3″) AAC(3)-I, Table 2 (Example 1)) was 4 µg/mL (≈ 6.67 µM) and the “MIC E coli AG103 ArmA” value ([3]; AG103 ArmA, Table 2 (Example 1)) was 16 µg/mL (≈ 26.7 µM). The “MIC E coli AG163/164 APH(3′)-Ia” value ([3]; AG163/164 APH(3′)-Ia, Table 2 (Example 1)) was over 128 µg/mL, the “MIC E coli AG166 APH(3′)-IIa” value ([3]; AG166 APH(3′)-IIa, Table 2 (Example 1)) was 4 to 8 µg/mL and the “MIC APH(3)-VI” value ([3]; APH(3)-VI, Table 3 (Example 1)) was 2 µg/mL (≈ 3.34 µM). The “MIC APH(3′)-I” value ([3]; APH(3′)-I, Table 3 (Example 1)) was over 64 µg/mL, the “MIC APH(3′)-II” value ([3]; APH(3′)-II, Table 3 (Example 1)) was 2 µg/mL (≈ 3.34 µM) and the “MIC APH(3′)-III” value ([3]; APH(3′)-III, Table 3 (Example 1)) was over 64 µg/mL. The “MIC AG003 E. coli AAC(3)-II” value [3] was 4 µg/mL (≈ 6.67 µM), the “MIC AG163 E. coli APH(3′)-I” value ([3]; clinical isolate AG163 APH(3′)-I, Table 2 (Example 4)) was over 128 µg/mL and the “MIC AG166 E. coli APH(3′)-II” value ([3]; clinical isolate AG166 APH(3′)-II, Table 2 (Example 4)) was 4 to 8 µg/mL. For the same compound, the “MIC AG037 E. coli APH(3′)-III” value ([3]; engineered strain AG037 APH(3′)-III, Table 2 (Example 4)) was over 128 µg/mL, the “MIC pH421 E. coli APH(3′)-I” value ([3]; engineered strain pH421 APH(3′)-I, Table 2 (Example 4)) was over 64 μg/ml and the “MIC pH422 E. coli APH(3′)-II” value ([3]; engineered strain pH422 APH(3′)-II, Table 2 (Example 4)) was 2 μg/ml. For the same compound, the “MIC pH423 E. coli APH(3′)-VI” value ([3]; engineered strain pH423 APH(3′)-VI, Table 2 (Example 4)) was 2 μg/ml, the “MIC AG031 P. aer. APH(3′)-II” value (P aeruginosa) was 16 µg/mL (≈ 26.7 µM) and the “MIC AG032 P. aer. APH(3′)-II” value (P aeruginosa) was over 128 µg/mL. For the same compound, the “MIC50 P aeruginosa AG31” value (P aeruginosa; strain AG31, Table 1 (Example 1)) was 16 µg/mL (≈ 26.7 µM), the “MIC50 P aeruginosa AG32” value (P aeruginosa; strain AG32, Table 1 (Example 1)) was over 128 µg/mL and the “MIC50 P aeruginosa AG33” value (P aeruginosa; strain AG33, Table 1 (Example 1)) was 128 µg/mL (≈ 213 µM). The “MIC50 P aeruginosa AG86” value (P aeruginosa; strain AG86, Table 1 (Example 1)) was 128 µg/mL (≈ 213 µM), the “MIC AG220 P. aerugin” value (P aeruginosa; strain AG220 Pseudomonas aeruginosa ATCC27853) was 4 µg/mL (≈ 6.67 µM) and the “MIC E coli AG006 wt” value (E coli wild type; AG006 wt, Table 2 (Example 1)) was 1 to 2 µg/mL. For the same compound, the “MIC E coli AG102 wt” value (E coli wild type; AG102 wt, Table 2 (Example 1)) was 2 µg/mL (≈ 3.34 µM), the “MIC E coli AG160 wt” value (E coli wild type; AG160 wt, Table 2 (Example 1)) was 4 µg/mL (≈ 6.67 µM) and the “MIC WT” value (E coli wild type; WT, Table 3 (Example 1)) was 2 µg/mL (≈ 3.34 µM). For the same compound, the “MIC AG001 E. coli WT” value (E coli wild type) was 4 µg/mL (≈ 6.67 µM), the “MIC AG055 E. coli WT” value (E coli wild type) was 2 µg/mL (≈ 3.34 µM) and the “MIC AG160 E. coli WT” value (E coli wild type; clinical isolate AG160 WT, Table 2 (Example 4)) was 4 µg/mL (≈ 6.67 µM). The “MIC pH430 E. coli WT” value (E coli wild type; engineered strain pH430 WT, Table 2 (Example 4)) was 2 μg/ml, the “MIC50 E coli AG01” value (E coli wild type; strain AG01, Table 1 (Example 1)) was 16 µg/mL (≈ 26.7 µM) and the “MIC50 E coli AG03” value (E coli wild type; strain AG03, Table 1 (Example 1)) was 8 to 16 µg/mL. For the same compound, the “MIC50 E coli AG55” value (E coli wild type; strain AG55, Table 1 (Example 1)) was 16 µg/mL (≈ 26.7 µM), the “MIC AG212 E. coli” value (E coli wild type; strain AG212 E. coli (ATCC25922)) was 4 µg/mL (≈ 6.67 µM) and the “MIC SZ380 M. smegmatis” value (M. smegmatis SZ380) was 0.5 µg/mL (≈ 0.834 µM). For the same compound, the “MIC AG225 A. baumannii” value [8] was 4 µg/mL (≈ 6.67 µM), the “MIC AG215 K. pneumon” value [9] was 2 µg/mL (≈ 3.34 µM) and the pIC50 ([4]; mitochondrial, Table 3 (Example 1), read-out: IC50 Mit) was 3.96. It also gave a pIC50 [4, 11] of 3.96, a pIC50 ([5]; cytosolic, Table 3 (Example 1), read-out: IC50 Cyt) of 4.28 and a pIC50 [5, 12] of 4.28. For the same compound, the “MIC AG038 MRSA” value (MRSA) was 4 µg/mL (≈ 6.67 µM), the “MIC AG039 MRSA AAC(6′)-I ANT(4′)-I” value (MRSA) was over 128 µg/mL and the “MIC AG042 MRSA AAC(6′)-I ANT(4′)-I APH(2′)” value (MRSA) was over 128 µg/mL. For the same compound, the “MIC AG044 MRSA” value (MRSA) was 4 to 8 µg/mL, the “MIC50 MRSA AG38” value (MRSA; strain AG38, Table 1 (Example 1)) was 4 µg/mL (≈ 6.67 µM) and the “MIC50 MRSA AG39” value (MRSA; strain AG39, Table 1 (Example 1)) was over 128 µg/mL. The “MIC50 MRSA AG42” value (MRSA; strain AG42, Table 1 (Example 1)) was over 128 µg/mL and the “MIC50 MRSA AG44” value (MRSA; strain AG44, Table 1 (Example 1)) was 4 to 8 µg/mL.

`NC[C@H]1O[C@H](O[C@H]2[C@H](O[C@@H]3O[C@H](CN)[C@@H](O)[C@H]3O)[C@@H](O)[C@H](N)C[C@@H]2N)[C@H](N)[C@@H](O)[C@@H]1O` [DC048] was tested, and the pIC50 [1, 10] was 7.05, the pIC50 [2] was 4.30 and the “MIC AG003 E. coli AAC(3)-II” value [3] was 16 µg/mL (≈ 35.3 µM). For the same compound, the “MIC AG001 E. coli WT” value (E coli wild type) was 32 to 64 µg/mL, the “MIC AG055 E. coli WT” value (E coli wild type) was 32 µg/mL (≈ 70.6 µM) and the pIC50 [4, 11] was 4.12. For the same compound, the “MIC AG038 MRSA” value (MRSA) was 8 µg/mL (≈ 17.6 µM), the “MIC AG039 MRSA AAC(6′)-I ANT(4′)-I” value (MRSA) was over 64 µg/mL and the “MIC AG042 MRSA AAC(6′)-I ANT(4′)-I APH(2′)” value (MRSA) was over 128 µg/mL. The “MIC AG044 MRSA” value (MRSA) was 8 to 16 µg/mL and the pIC50 [6] was 4.47.

In the case of `NCC1OC(OC2C(CO)OC(OC3C(O)C(N)CC(N)C3OC3OC4C(O)CCCOC4C(O)C3N)C2O)C(N)C(O)C1O` (centres unmarked) [DC196], the pIC50 [1, 10] was 6.85, the pIC50 [2] was 4.37 and the “MIC AG036 ANT(4′,4′′)” value ([3]; E. coli strain AG036, ANT(4′,4′′)) was 2 µg/mL (≈ 3.05 µM). The “MIC AG037 APH(3′)-III” value ([3]; E. coli strain AG037, APH(3′)-III) was over 128 µg/mL, the “MIC pH421 APH(3)-I” value ([3]; E. coli strain pH421, APH(3)-I) was over 128 μg/ml and the “MIC pH422 APH(3′)-II” value ([3]; E. coli strain pH422, APH(3′)-II) was 64 μg/ml. For the same compound, the “MIC pH423 APH(3′)-VI” value ([3]; E. coli strain pH423, APH(3′)-VI) was 16 μg/ml, the “MIC AG031 P. aer. APH(3′)-II” value (P aeruginosa) was over 32 µg/mL and the “MIC pH430 WT” value (E coli wild type; E. coli strain pH430, WT) was 4 μg/ml. The “MIC AG001 E. coli WT” value (E coli wild type) was 4 µg/mL (≈ 6.1 µM), the pIC50 [4, 11] was 3.70 and the pIC50 [5, 12] was 4.06. For the same compound, the “MIC AG038 MRSA” value (MRSA) was 2 µg/mL (≈ 3.05 µM) and the pIC50 [6] was 4.02.
